Molecular target: hCereblon(M1-L442)_hDDB1(M1-H1140) (Homo sapiens (Human), UniProt Q96SW2)
Test: Fluorescence direct binding (tryptophan fluorescence titration)
Conditions: 20° C., excitation 280 nm, emission 340 nm, 50 mM Hepes 7.4 200 mM NaCl; read-out: Fluorescence h-Cereblon_DDB1 Mean Kd_EQ
Experimental: Fluorescence Direct Binding Protocol
Determination of the affinities of compounds to protein containing one or more tryptophan is measurable by monitoring the fluorescence emission in direct mode. The measurements, depending on the protein available amounts, were performed either manually in a cuvette on ISS-PCI photon counting spectrofluorometer or automatically in well plates on a fluorescence plate reader device. Fluorescence titrations were performed at 20° C. in the chosen binding assay buffer by using a defined constant protein concentration against ligand concentration variations. Small aliquots of known ligand concentration solubilized in DMSO were added and the fluorescence, excited at 280 nm, was recorded at 340 nm.

hCereblon(M1-L442)_hDDB1(M1-H1140), sequence (Q96SW2 whole entry, looked up): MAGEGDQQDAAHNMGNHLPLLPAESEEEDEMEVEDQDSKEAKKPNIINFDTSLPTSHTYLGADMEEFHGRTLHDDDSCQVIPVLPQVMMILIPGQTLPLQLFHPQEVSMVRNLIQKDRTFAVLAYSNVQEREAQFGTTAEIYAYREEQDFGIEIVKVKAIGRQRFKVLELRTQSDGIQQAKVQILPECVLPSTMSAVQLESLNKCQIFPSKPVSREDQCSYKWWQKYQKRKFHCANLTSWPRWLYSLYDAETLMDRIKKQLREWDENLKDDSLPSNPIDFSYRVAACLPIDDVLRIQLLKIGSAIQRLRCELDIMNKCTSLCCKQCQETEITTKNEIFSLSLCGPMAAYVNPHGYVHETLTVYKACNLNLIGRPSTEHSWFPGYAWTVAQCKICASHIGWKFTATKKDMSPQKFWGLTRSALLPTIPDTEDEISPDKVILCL
hCereblon(M1-L442)_hDDB1(M1-H1140), sequence (Q16531 whole entry partner, looked up): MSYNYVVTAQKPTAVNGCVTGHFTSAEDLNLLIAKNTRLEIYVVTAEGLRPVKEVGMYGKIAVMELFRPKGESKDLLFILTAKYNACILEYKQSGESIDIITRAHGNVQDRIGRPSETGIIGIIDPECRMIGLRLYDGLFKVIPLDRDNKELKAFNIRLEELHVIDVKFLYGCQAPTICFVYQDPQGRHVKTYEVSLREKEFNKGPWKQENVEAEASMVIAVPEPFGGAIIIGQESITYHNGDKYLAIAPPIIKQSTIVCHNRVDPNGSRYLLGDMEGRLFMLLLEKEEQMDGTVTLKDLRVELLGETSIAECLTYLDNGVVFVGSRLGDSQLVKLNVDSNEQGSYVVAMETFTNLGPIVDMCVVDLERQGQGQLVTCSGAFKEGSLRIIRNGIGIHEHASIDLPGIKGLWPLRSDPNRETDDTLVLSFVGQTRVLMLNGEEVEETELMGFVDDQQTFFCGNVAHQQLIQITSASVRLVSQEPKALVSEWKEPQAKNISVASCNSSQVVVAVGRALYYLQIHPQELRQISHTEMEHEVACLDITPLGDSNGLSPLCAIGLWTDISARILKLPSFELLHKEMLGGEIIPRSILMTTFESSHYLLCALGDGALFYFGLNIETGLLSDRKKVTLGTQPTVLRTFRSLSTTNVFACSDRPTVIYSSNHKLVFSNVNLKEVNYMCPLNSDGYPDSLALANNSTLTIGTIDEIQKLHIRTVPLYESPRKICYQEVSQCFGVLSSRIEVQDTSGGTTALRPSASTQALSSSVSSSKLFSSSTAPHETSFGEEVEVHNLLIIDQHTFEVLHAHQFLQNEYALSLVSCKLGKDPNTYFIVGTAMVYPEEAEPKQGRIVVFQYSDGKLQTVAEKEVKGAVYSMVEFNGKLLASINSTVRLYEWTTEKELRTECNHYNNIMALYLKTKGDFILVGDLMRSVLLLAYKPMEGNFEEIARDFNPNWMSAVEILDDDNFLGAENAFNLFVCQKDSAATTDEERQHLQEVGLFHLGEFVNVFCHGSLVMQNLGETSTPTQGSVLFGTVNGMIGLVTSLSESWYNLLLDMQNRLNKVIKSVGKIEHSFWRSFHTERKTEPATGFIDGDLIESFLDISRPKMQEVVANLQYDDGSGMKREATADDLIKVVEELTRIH

Q: With O=C1NC(=O)C2(CCN(c3ccc([N+](=O)[O-])cn3)CC2)N1 [Example 69, 8-(5-nitropyridin-2-yl)-1,3,8-triazaspiro[4.5] decane-2,4-dione] as the molecule, how does the Kd read?
A: 7 nM

Q: O=C1CC2(CCN(c3ccc([N+](=O)[O-])cn3)CC2)C(=O)N1 [Example 70, 8-(5-nitropyridin-2-yl)-2,8-diazaspiro[4.5] decane-1,3-dione] was tested. Which Kd did it give?
A: 23 nM

Q: With O=C1CC2(CCN(c3nc4ccccc4s3)CC2)C(=O)N1 [Example 71, 8-(benzo[d]thiazol-2-yl)-2,8-diazaspiro[4.5] decane-1,3-dione] as the molecule, how does the Kd read?
A: 2 nM

Q: How did the Kd turn out when O=C1NC(=O)C2(CCN(c3ccc([N+](=O)[O-])cc3)CC2)N1 [Example 72, 8-(4-nitrophenyl)-1,3,8-triazaspiro[4.5] decane-2,4-dione] was run?
A: < 1 nM

Q: For COC(=O)c1ccc(N2CCC3(CC2)CC(=O)NC3=O)nc1 [Example 74, methyl 6-(1,3-dioxo-2,8-diazaspiro[4.5]decan-8-yl)nicotinate], which Kd is on record?
A: 11 nM

Q: Which Kd does the source give for O=C1CC2(CCN(C(=O)c3ccccc3)CC2)C(=O)N1 [Example 75, 8-benzoyl-2,8-diazaspiro[4.5] decane-1,3-dione] here?
A: < 1 nM

Q: Which Kd does the source give for O=C1NC(=O)C2(CCN(C(=O)c3ccc4scnc4c3)CC2)N1 [Example 81, 8-(benzo[d]thiazole-5-carbonyl)-1,3,8-triazaspiro[4.5] decane-2,4-dione] here?
A: 6 nM

From US11584748B2, “Spirocyclic compounds” (priority 2018, dated 2023)
